Results reported in patent US10807959B2, “WDR5-MLL1 inhibitors and modulators” (Vanderbilt University, priority 2018, dated 2020).

The compounds below were run against WDR5 (Homo sapiens (Human), UniProt P61964) (assay: TR-FRET binding assay, displacement of 10mer-Thr-FAM probe from His-tagged WDR5). Details: not given.
Description: The LanthaScreenTM Elite Tb-anti-HIS Antibody from ThermoFisher Scientific was used for this purpose. […] The ratio of the 520 and 495 signals are then utilized to generate a dose-response curve to calculate an IC50 value. […] WDR[…] tag protein is used at 2 nM.

In order of rising Ki:
1. Cc1cc(-c2cc(CNC3=NCCN3)cc(C(=O)NCc3ccc(Cl)c(Cl)c3)c2)ccn1 [Example B74]  0.0312 nM
2. Cc1cc(-c2cc(CNC3=NCCN3)cc(C(=O)NCc3ccc(Cl)c(Cl)c3)c2)cnc1F [Example B99]  0.0875 nM
3. Cc1cc(-c2cc(CNC3=NCCN3)cc(C(=O)NCc3cc(Cl)ccn3)c2)cc(C)n1 [Example B111]  0.0875 nM
4. COc1ccc(CNC(=O)c2cc(CNC3=NCCN3)cc(-c3cc(C)cnc3F)c2)cc1OC [Example B107]  0.0965 nM
5. Cc1ccncc1-c1cc(CNC2=NCCN2)cc(C(=O)NCc2cc(Cl)cc(Cl)c2)c1 [Example B87]  0.198 nM
6. O=C(NCc1ccc(Cl)c(Cl)c1)c1cc(F)c(F)c(CNC2=NCCN2)c1 [Example B33]  0.444 nM
7. COc1cc(CNC(=O)c2cc(CNC3=NCCN3)cc(-c3ccnc(C)c3)c2)cc(OC)c1 [Example B72]  0.634 nM

Same assay, conditions: Inhibition of WDR5 by TR-FRET assay

Compared with CCn1cc(-c2cc(CNC(=N)C3(C)CC3)cc(C(=O)N[C@H](c3ccc(F)c(C)c3)C3CC3)c2)c(C(F)(F)F)n1 [Example 109, (S)—N-(Cyclopropyl(4-fluoro-3-methylphenyl)methyl)-3-(1-ethyl-3-(trifluoromethyl)-1H-pyrazol-4-yl)-5-((1-methylcyclopropane-1-carboximidamido)methyl)benzamide], CCn1cc(-c2cc(CNC(=N)C3CCOC3)cc(C(=O)N[C@H](c3ccc(F)c(C)c3)C3CC3)c2)c(C(F)(F)F)n1 (stereo partly drawn) [Example 108, N—((S)-Cyclopropyl(4-fluoro-3-methylphenyl)methyl)-3-(1-ethyl-3-(trifluoromethyl)-1H-pyrazol-4-yl)-5-((tetrahydrofuran-3-carboximidamido)methyl)benzamide] is 15-fold higher in Ki: 0.13 nM for the first, 2 nM for the second.

Going from Cc1ccnc(C(NC(=O)c2cc(CNC3=NCCN3)cc(-c3cnccc3C)c2)C2CC2)c1 (stereo not drawn) [Example 25, N-(cyclopropyl(4-methylpyridin-2-yl)methyl)-3-(((4,5-dihydro-1H-imidazol-2-yl)amino)methyl)-5-(4-methylpyridin-3-yl)benzamide] to Cc1ccnc(C(NC(=O)c2cc(CNC3=NCCN3)cc(-c3ccc(F)nc3C)c2)C2CC2)c1 (stereo not drawn) [Example 9, N-(Cyclopropyl(4-methylpyridin-2-yl)methyl)-3-(((4,5-dihydro-1H-imidazol-2-yl)amino)methyl)-5-(6-fluoro-2-methylpyridin-3-yl)benzamide], the Ki falls from 0.2 nM to under 0.1 nM.

Cc1cc(C(C)NC(=O)c2cc(CNC3=NCCC3)cc(-c3ccc(F)cc3C(F)(F)F)n2)ncc1Cl (stereo not drawn) [Example 96, N-(1-(5-chloro-4-methylpyridin-2-yl)ethyl)-4-(((3,4-dihydro-2H-pyrrol-5-yl)amino)methyl)-6-(4-fluoro-2-(trifluoromethyl)phenyl)picolinamide] and Cc1cc([C@H](C)NC(=O)c2cc(CNC3=NCCC3)cc(-c3ccc(F)cc3C(F)(F)F)n2)ccc1Cl [Example 92, (S)—N-(1-(4-chloro-3-methylphenyl)ethyl)-4-(((3,4-dihydro-2H-pyrrol-5-yl)amino)methyl)-6-(4-fluoro-2-(trifluoromethyl)phenyl)picolinamide] are the same in Ki: 1.5 nM for the first, 1.5 nM for the second.

Cc1cccc(Oc2cc(CNC3=NCCN3)cc(C(=O)NCc3ccc(Cl)c(Cl)c3)c2)c1 [Example 32, N-(3,4-Dichlorobenzyl)-3-(((4,5-dihydro-1H-imidazol-2-yl)amino)methyl)-5-(m-tolyloxy)benzamide] and COc1ccc(CNC(=O)c2cc(CNC3=NCCN3)cc(-c3ccnc(C)c3)c2)cc1Cl [Example 23, N-(3-chloro-4-methoxybenzyl)-3-(((4,5-dihydro-1H-imidazol-2-yl)amino)methyl)-5-(2-methylpyridin-4-yl)benzamide] are within 1.5-fold of each other in Ki: 0.91 nM for the first, 1.3 nM for the second.

Compared with COc1cc(OC)cc(C(C)NC(=O)c2cc(CNC3=NCCN3)cc(-c3ccc(F)nc3C)n2)c1 (stereo not drawn) [Example 75, 4-(((4,5-Dihydro-1H-imidazol-2-yl)amino)methyl)-N-(1-(3,5-dimethoxyphenyl)ethyl)-6′-fluoro-2′-methyl-[2,3′-bipyridine]-6-carboxamide], Cc1cnc(CNC(=O)c2cc(CNC3=NCCN3)cc(-c3ccc(F)nc3C)n2)nc1 [Example 77, 4-(((4,5-Dihydro-1H-imidazol-2-yl)amino)methyl)-6′-fluoro-2′-methyl-N-((5-methylpyrimidin-2-yl)methyl)-[2,3′-bipyridine]-6-carboxamide] is 41-fold higher in Ki: 0.8 nM for the first, 33 nM for the second.

Compared with Cc1ccnc(C(NC(=O)c2cc(CNC3=NCCC3)cc(-c3ccc(F)cc3C)n2)C2CC2)c1 (stereo not drawn) [Example 95, N-(Cyclopropyl(4-methylpyridin-2-yl)methyl)-4-(((3,4-dihydro-2H-pyrrol-5-yl)amino)methyl)-6-(4-fluoro-2-methylphenyl)picolinamide], COc1ccnc(CNC(=O)c2cc(CNC3=NCCC3)cc(-c3ccc(F)cc3C(F)(F)F)n2)c1 [Example 94, 4-(((3,4-dihydro-2H-pyrrol-5-yl)amino)methyl)-6-(4-fluoro-2-(trifluoromethyl)phenyl)-N-((4-methoxypyridin-2-yl)methyl)picolinamide] is 7.2-fold lower in Ki: 8.6 nM for the first, 1.2 nM for the second.

Compared with Cc1ccc(CNC(=O)c2cc(CNC(=N)N)cc(-c3ccnc(C)c3)c2)cn1 [Example 104, 3-(guanidinomethyl)-N-((6-methylpyridin-3-yl)methyl)-5-(2-methylpyridin-4-yl)benzamide], Cc1ccc(CNC(=O)c2cc(CNC3=NCCN3)cc(-c3cnccc3C)c2)cn1 [Example 28, 3-(((4,5-Dihydro-1H-imidazol-2-yl)amino)methyl)-5-(4-methylpyridin-3-yl)-N-((6-methylpyridin-3-yl)methyl)benzamide] is 1.6-fold lower in Ki: 12 nM for the first, 7.6 nM for the second. The second binds more tightly here.

Going from COc1cc(CN(C)C(=O)c2cc(Cn3ccnc3)cc(-c3ccc(F)nc3C)c2)cc(OC)c1 [Example 140, 3-((1H-Imidazol-1-yl)methyl)-N-(3,5-dimethoxybenzyl)-5-(6-fluoro-2-methylpyridin-3-yl)-N-methylbenzamide] to COc1cc(CNC(=O)c2cc(CNC3=NCCC3)cc(-c3cc(C)c(F)cc3C)c2)cc(OC)c1 [Example 62, 5-(((3,4-Dihydro-2H-pyrrol-5-yl)amino)methyl)-N-(3,5-dimethoxybenzyl)-4′-fluoro-2′,5′-dimethyl-[1,1′-biphenyl]-3-carboxamide], the Ki falls from 95 nM to 0.21 nM (450-fold).

Going from Cc1ccnc(C(NC(=O)c2cc(Cn3ccnc3C)cc(N3CCOCC3)c2)C2CC2)c1 (stereo not drawn) [Example 144, N-(cyclopropyl(4-methylpyridin-2-yl)methyl)-3-((2-methyl-1H-imidazol-1-yl)methyl)-5-morpholinobenzamide] to O=C(NCc1ccc(Cl)c(Cl)c1)c1cc(Cn2ccnc2)cc(OC2CCC2)c1 [Example 142, 3-((1H-Imidazol-1-yl)methyl)-5-cyclobutoxy-N-(3,4-dichlorobenzyl)benzamide], the Ki falls from 4.77 nM to 0.59 nM (8.1-fold). The second binds more tightly here.

Cc1nc(F)ccc1-c1cc(CNC2=NCCN2)cc(C(=O)NC(C2CC2)C2CC2)c1 [Example 10, N-(dicyclopropylmethyl)-3-(((4,5-dihydro-1H-imidazol-2-yl)amino)methyl)-5-(6-fluoro-2-methylpyridin-3-yl)benzamide] and Cc1cnc(CNC(=O)c2cc(CNC3=NCCN3)cc(-c3ccc(F)nc3C)c2)cn1 [Example 36, 3-(((4,5-dihydro-1H-imidazol-2-yl)amino)methyl)-5-(6-fluoro-2-methylpyridin-3-yl)-N-((5-methylpyrazin-2-yl)methyl)benzamide] are within 1.5-fold of each other in Ki: 2.9 nM for the first, 2.8 nM for the second.

Going from Cc1ccncc1-c1cc(CNC2=NCCN2)cc(C(=O)NCc2ccc(Cl)c(Cl)c2)n1 [Example 81, N-(3,4-Dichlorobenzyl)-4-(((4,5-dihydro-1H-imidazol-2-yl)amino)methyl)-4′-methyl-[2,3′-bipyridine]-6-carboxamide] to CCOc1ncc(C)cc1-c1cc(CNC2=NCCN2)cc(C(=O)NCc2ccc(Cl)c(Cl)c2)n1 [Example 88, N-(3,4-dichlorobenzyl)-4-(((4,5-dihydro-1H-imidazol-2-yl)amino)methyl)-2′-ethoxy-5′-methyl-[2,3′-bipyridine]-6-carboxamide], the Ki falls from 0.24 nM to 0.12 nM (2-fold).

Compared with O=C(NCc1ccc(Cl)c(Cl)c1)c1cc(Cn2ccnc2)cc(C(F)(F)F)c1 [Example 141, 3-((1H-Imidazol-1-yl)methyl)-N-(3,4-dichlorobenzyl)-5-(trifluoromethyl)benzamide], Cc1cc(CNC(=O)c2cc(CNC3=NCCN3)cc(-c3ccc(F)nc3C)c2)ccc1Cl [Example 5, N-(4-chloro-3-methylbenzyl)-3-(((4,5-dihydro-1H-imidazol-2-yl)amino)methyl)-5-(6-fluoro-2-methylpyridin-3-yl)benzamide] is 500-fold lower in Ki: 10 nM for the first, 0.02 nM for the second. The second binds more tightly here.

Going from COc1cc(CNC(=O)c2cc(CNC3=NCCN3)cc(-c3cnc(F)c(Cl)c3)c2)cc(OC)c1 [Example 35, 3-(5-Chloro-6-fluoropyridin-3-yl)-5-(((4,5-dihydro-1H-imidazol-2-yl)amino)methyl)-N-(3,5-dimethoxybenzyl)benzamide] to COc1ccnc(CNC(=O)c2cc(CNC3=NCCN3)cc(-c3cc(F)cnc3OC)c2)c1 [Example 48, 3-(((4,5-dihydro-1H-imidazol-2-yl)amino)methyl)-5-(5-fluoro-2-methoxypyridin-3-yl)-N-((4-methoxypyridin-2-yl)methyl)benzamide], the Ki rises from 0.36 nM to 0.63 nM (1.8-fold). The first binds more tightly here.

Cc1ccncc1-c1cc(CNC2=NCCN2)cc(C(=O)NCc2cc(F)cc(Cl)c2)c1 [Example 24, N-(3-chloro-5-fluorobenzyl)-3-(((4,5-dihydro-1H-imidazol-2-yl)amino)methyl)-5-(4-methylpyridin-3-yl)benzamide] and Cc1cc(-c2cc(CNC3=NCCN3)cc(C(=O)NCc3cc(Cl)ccn3)c2)ccn1 [Example 22, N-((4-chloropyridin-2-yl)methyl)-3-(((4,5-dihydro-1H-imidazol-2-yl)amino)methyl)-5-(2-methylpyridin-4-yl)benzamide] are within 1.5-fold of each other in Ki: 0.37 nM for the first, 0.28 nM for the second.

Compound Cc1cnc(CNC(=O)c2cc(CNC3=NCCN3)cc(-c3ccc(F)nc3C)n2)cn1 [Example 76, 4-(((4,5-Dihydro-1H-imidazol-2-yl)amino)methyl)-6′-fluoro-2′-methyl-N-((5-methylpyrazin-2-yl)methyl)-[2,3′-bipyridine]-6-carboxamide] has a Ki of 32 nM.
